Reference: patent US20260373497A1, “MOLECULAR MACHINES STIMULATE INTERCELLULAR CALCIUM WAVES AND CAUSE MUSCLE CONTRACTION” (William Marsh Rice University, priority 2022, published 2026)
“And” between values parts separate entries of the source, which are not always exact repeats. Equal entries are not always repeated. “Also recorded” adds a separate entry of the source.

Legend:
C2C12 myotubes = assay: C2C12 myotube contraction (image subtraction); assay type: cell-based, mouse; settings: 400-nm light 1.5 s, image subtraction
Method: FIG. 35—Flow chart for the image subtraction process. First, the background is subtracted from the traces to account for drift during the course of the experiment (top row). After this, the traces are zeroed at the point of stimulation, and the area is calculated from the point of stimulation until the end of the experiment to yield the contraction magnitude. (bottom row).
FIGS. 40A-40D—MMs induce contraction in C2C12 myotubes, a) Confocal microscopy images of Fluo-4 and b) image subtraction of brightfield images to highlight calcium release and contractile motion in three stimulated myotubes (indicated by the red arrows) immediately before stimulation (t=0) for 1.5 s with 400-nm light, as well as 10 s and 120 s after stimulation. Scale bar=30 μm. c) Magnitude of contraction of MM 1 compared to DMSO, MM 2, MM 3, and cells treated with 10 μM U-73122. d) Mechanism of skeletal muscle cell contraction.
This method yielded images where the pixel intensity corresponds to movement over the course of the experiment (FIG. 40C), allowing us to easily visualize and quantify contraction.

Hydra vulgaris [1] = assay: Regional ICW in Hydra (Protocol I); assay type: in vivo; settings: 24 μM MM; for Regional ICW upon body column stimulation: 24 h, 405 nm, 1 s
Method: (§1) FIGS. 20A-20N—MM induce ICW and muscle contraction in vivo. (a) Image of a Hydra loaded into a microfluidic chamber with anatomical regions marked. Scale bar is 100 μm and applies to (a-c). (b) MM 1 (24 μM) loaded into Hydra for 24 h. (c) A Hydra expressing GCaMP7b in endodermal epitheliomuscular cells. The stimulation regions used for Protocols I and II are marked. Protocol 1 was used for body column stimulation (1 s pulse to a 10 μm diameter circular area) to trigger regional ICW. Protocol II was used for oral region stimulation (2 s pulse to the oral region, ~1000-2000 μm^2) to trigger whole-body contraction. (d) A regional ICW in a Hydra treated with MM 1 and stimulated with 405-nm light via Protocol I. The indicated times represent the time after stimulation at which the image was taken. Scale bar applies to both images and is 100 μm. (e-i) Responses observed from Hydra treated with (e) MM 1, (f) MM 2, (g) MM 3, (h) MM 4, or (i) DMSO control (“C”) and stimulated for 1 s using Protocol I. Bold, colored traces represent the average trace (n=25 across 5 Hydra). Gray traces represent individual experiments. (j) Bar graph showing ICW response rate and (k) box-and-whisker plot showing ICW delay time of Hydra stimulated using Protocol I across MM treatment conditions (n=25 experiments across at least 5 Hydra per condition). ICW responses were defined as ΔF/F0>1. (1) Representative contraction in a Hydra treated with MM 2 and stimulated via Protocol II. Scale bar applies to both images and is 100 μm. (m) Representative GCaMP7b fluorescence trace in a Hydra treated with MM 2 and stimulated using Protocol II. (n) Bar graph showing contractile response rates across treatment conditions for Hydra stimulated for 2 s using Protocol II (at least 50 experiments across ≥5 Hydra per condition). Error bars in bar graphs represent the standard error of the mean. See Example 6 for more info on the calculation of ICW and contractile response rates. For all plots, cyan lines indicate the time of stimulus with 405-nm light (9.0×10^2 W cm^−2), during which no data was collected. * P-value<0.05, ** P-value<0.01, *** P-value<0.001, **** P-value<0.0001.
(§2) Prior to stimulation experiments, Hydra were loaded with MM by incubating with solutions containing 24 μM of MM for 24 h (FIG. 20B). Distinct stimulation protocols were employed to cause either local ICW or whole-body contraction (FIG. 20C). First, treatment of MM-loaded Hydra with pulses of laser light administered to a small region of the body column (Protocol I) caused ICW emanating from the site of stimulation (FIGS. 20D and 21). Similar to ICW evoked in vitro, these ICW propagated throughout the Hydra body column according to the degree of electrical connectivity of the stimulated cells. Distinct propagation kinetics were observed when stimulating different regions of Hydra simultaneously. Second, MM activation was used to attempt to drive whole-body Hydra contractions by administering laser stimuli to the oral region (Protocol II).
(§3) Hydra Preparation, Stimulation, and Imaging: Hydra were raised in Hydra medium containing CaCl2·2H2O, MgCl2·6H2O, KNO3, NaHCO3, and MgSO4 in deionized water at 18 °C in a light-cycled (12 h light, 12 h dark) incubator. Hydra were fed with an excess of freshly brined Artemia Nauplii (Brine Shrimp Direct, Ogden, UT, #BSEP8Z) three times a week. All experiments were performed at room temperature after starving the animals for 2 days. The transgenic line expressing GCaMP6s under the Actin promoter in neurons was generated by embryonic microinjection by the Yuste lab at Columbia University (Addgene: plasmid #102558). The transgenic line expressing GCaMP7b under the Ef1α promoter in endodermal epitheliomuscular tissue was generated by embryonic microinjection in a collaboration by the Robinson lab (Rice University) and the Juliano Lab (University of California, Davis).
(§4) Hydra were incubated with chosen MM 24 h before imaging. […]

[2] = cited from earlier work
Hydra vulgaris [3] = assay: Whole-body contraction of Hydra (Protocol II); assay type: in vivo; settings: for Contraction rate compared with light alone: Fisher's Exact Test, MM 2 P<0.00001, MM 1 P=0.0199, MM 3 P=0.5325, MM 4 P=0.0439; for Contraction peaks relative to sham stimulus: sham light, 0% laser duty cycle; for Signaling / contraction in Hydra (summary): in vivo, MM + light
Method: as §1, §2, §3, §4

| SMILES | Myotube contraction (C2C12 myotubes) | ICW delay (response) time (Hydra vulgaris [1]) [s] | Regional ICW upon body column stimulation (Hydra vulgaris [1]) | Rotation rate [2] | Contraction rate compared with light alone (Hydra vulgaris [3]) | Contraction peaks relative to light stimulus (Hydra vulgaris [3]; Protocol II, with light) | Contraction peaks relative to sham stimulus (Hydra vulgaris [3]) | Success Rate (contractile response rate) (Hydra vulgaris [3]; with light, Protocol II) [%] | Total Null (Hydra vulgaris [3]; with light, Protocol II) | Total Successes (contractile responses) (Hydra vulgaris [3]; with light, Protocol II) | Success Rate (contractile response rate) (Hydra vulgaris [3]; without light (sham)) [%] | Total Null (Hydra vulgaris [3]; without light (sham)) | Total Successes (contractile responses) (Hydra vulgaris [3]; without light (sham)) | Signaling / contraction in Hydra (summary) (Hydra vulgaris [3]) |
| --- | --- | --- | --- | --- | --- | --- | --- | --- | --- | --- | --- | --- | --- | --- |
| CC1Cc2ccc3ccccc3c2C1=C1c2ccccc2Sc2cc(NCCN(C)C)ccc21 (stereo not drawn) [MM 1] | strong contraction in C2C12 myotubes | 12.76 | consistently elicited robust regional ICW | ~ 3 MHz and 3 MHz | at a significantly higher rate than light alone | most often occur in concert with stimuli | do not occur in concert with sham stimulus | 68 | 14 | 48 | 29 | 28 | 13 | – |
| CC1Cc2cc(NCCN(C)C)c3ccccc3c2C1=C1c2ccccc2-c2ccccc21 (stereo not drawn) [MM 3] | Strong cellular contraction did not occur | 15.46 | not significantly different from solvent-only controls | – | did not elicit contraction at a significantly higher rate than light alone | occasionally follow stimuli | do not occur in concert with sham stimulus | 38 | 2 | 18 | 12 | 17 | 12 | Small responses were observed |
| CN(C)CCNc1ccc2c(c1)Sc1ccccc1C2=C1CCc2ccc3ccccc3c21 [MM 4] | – | 16.6 | consistently elicited robust regional ICW; also recorded: elicited regional ICW in Hydra despite causing only weak responses in vitro | 3 MHz | more effective than light alone | most often occur in concert with stimuli | do not occur in concert with sham stimulus | 65 | 5 | 36 | 20 | 15 | 6 | able to drive non-trivial signaling behavior in vivo |
